How the values were obtained:
Assay type in all cases: in vivo
[1] = test system: pigweed, palmer (palmer pigweed, Amaranthus palmeri); experiment: Test F pre-/postemergence: pigweed, palmer
From the text: (§1) Seeds of plant species selected from corn (Zea mays), soybean (Glycine max), velvetleaf (Abutilon theophrasti), lambsquarters (Chenopodium album), poinsettia, wild (wild poinsettia, Euphorbia heterophylla), pigweed, palmer (palmer pigweed, Amaranthus palmeri), waterhemp (common waterhemp, Amaranthus rudis), surinam grass (Brachiaria decumbens), crabgrass, Brazil (Brazilian crabgrass, Digitaria horizontalis), panicum, fall (fall panicum Panicum dichotomiflorum), crabgrass, large (large crabgrass, Digitaria sanguinalis), foxtail, giant (giant foxtail, Setaria faberii), foxtail, green (green foxtail Setaria viridis), goosegrass (Eleusine indica), ragweed (common ragweed, Ambrosia elatior), barnyardgrass (Echinochloa crus-galli), sandbur (southern sandbur, Cenchrus echinatus), arrowleaf sida (Sida rhombifolia), ryegrass, Italian (Italian ryegrass, Lolium multiflorum), dayflower, VA (Virginia (VA) dayflower, Commelina virginica), field bindweed (Convolvulus arvensis), cocklebur (common cocklebur, Xanthium strumarium), morningglory (Ipomoea coccinea), nightshade (eastern black nightshade, Solanum ptycanthum), kochia (Kochia scoparia), nutsedge, yellow (yellow nutsedge, Cyperus esculentus), johnsongrass (Sorghum halepense), smartweed (ladysthumb smartweed, Polygonum persicaria), and beggarticks (hairy beggarticks, Bidens pilosa), were planted into a silt loam soil and treated preemergence with test chemicals formulated in a non-phytotoxic solvent mixture which included a surfactant. At the same time, plants selected from these crop and weed species and also pigweed (Amaranthus retroflexus), waterhemp_RES1 (ALS/Triazine resistant common waterhemp, Amaranthus rudis) and waterhemp_RES2 (ALS/HPPD resistant common waterhemp, Amaranthus rudis) were planted in pots containing a planting medium comprising spaghnum peat moss, vermiculite, wetting agent and starter nutrients treated with postemergence applications of some of the test chemicals formulated in the same manner. Plants ranged in height from 2 to 18 cm for postemergence treatments (1- to 4-leaf stage).
(§2) Treated plants and controls were maintained in a greenhouse for 14 to 21 days, after which time all species were compared to controls and visually evaluated. Plant response ratings, summarized in Table E, are based on a scale of 0 to 100 where 0 is no effect and 100 is complete control. A dash (-) response means no test result.

[2] = test system: morningglory (Ipomoea coccinea); experiment: Test F pre-/postemergence: morningglory; conditions: Preemergence
In short: (§3)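 0–100 visual control scores, taken 14–21 d after application in the greenhouse. Preemergence treatment was made to silt loam soil at sowing. Postemergence sprays hit 1- to 4-leaf plants (2–18 cm) in peat/vermiculite mix. Surfactant-containing non-phytotoxic solvent served as the vehicle.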

kochia (Kochia scoparia) = experiment: Test F pre-/postemergence: kochia; conditions: Preemergence
From the text: as §1, §2

[3] = test system: velvetleaf (Abutilon theophrasti); experiment: Test F pre-/postemergence: velvetleaf; conditions: Preemergence
From the text: as §1, §2

[4] = test system: dayflower, VA (Virginia (VA) dayflower, Commelina virginica); experiment: Test F pre-/postemergence: dayflower, VA
From the text: as §1, §2

[5] = test system: crabgrass, Brazil (Brazilian crabgrass, Digitaria horizontalis); experiment: Test F pre-/postemergence: crabgrass, Brazil
In short: as §3

[6] = test system: nightshade (eastern black nightshade, Solanum ptycanthum); experiment: Test F pre-/postemergence: nightshade; conditions: Preemergence
In short: as §3

Oilseed Rape = experiment: Test C preemergence: oilseed rape; conditions: scale 0 (no effect) to 100 (complete control)
[7] = Postemergence, 4 g ai/ha, scale 0 to 100
[8] = Postemergence, 8 g ai/ha, scale 0 to 100
[9] = Postemergence, 16 g ai/ha, scale 0 to 100
[10] = Postemergence, 31 g ai/ha, scale 0 to 100
[11] = Postemergence, 62 g ai/ha, scale 0 to 100
[12] = Preemergence, 4 g ai/ha, scale 0 to 100, 0 no effect, 100 complete control
[13] = Preemergence, 8 g ai/ha, scale 0 to 100, 0 no effect, 100 complete control
[14] = Preemergence, 16 g ai/ha, scale 0 to 100 (0 no effect, 100 complete control)
[15] = Preemergence, 31 g ai/ha, scale 0 to 100 (0 no effect, 100 complete control)
[16] = 4 g ai/ha, scale 0 to 100, 0 no effect, 100 complete control
[17] = 8 g ai/ha, scale 0 to 100, 0 no effect, 100 complete control
[18] = 16 g ai/ha, scale 0 to 100 (0 no effect, 100 complete control)
[19] = 31 g ai/ha, scale 0 to 100 (0 no effect, 100 complete control)
[20] = Preemergence, 62 g ai/ha, scale 0 to 100

In the case of Cc1nn(-c2ccc(C(F)(F)F)c(F)c2)nc1Cc1ccnc(C(F)(F)F)c1 [Compound 162], the “Plant response rating, Pigweed, Palmer” value [1, 7] is reported as 70, the “Plant response rating, Pigweed, Palmer” value [1, 8] is reported as 70 and the “Plant response rating, Pigweed, Palmer” value [1, 9] is reported as 80. The “Plant response rating, Pigweed, Palmer” value [1, 10] was 90, the “Plant response rating, Pigweed, Palmer” value [1, 11] was 90 and the “Plant response rating, Pigweed, Palmer” value [1, 12] was 0. The “Plant response rating, Pigweed, Palmer” value [1, 13] was 25, the “Plant response rating, Pigweed, Palmer” value [1, 14] was 98 and the “Plant response rating, Pigweed, Palmer” value [1, 15] was 100. For the same compound, the “Plant response rating, Morningglory” value [2, 16] was 0, the “Plant response rating, Morningglory” value [2, 17] was 0 and the “Plant response rating, Morningglory” value [2, 18] was 20. The “Plant response rating, Morningglory” value [2, 19] was 30, the “Plant response rating, Kochia” value (kochia (Kochia scoparia); [16]) was 30 and the “Plant response rating, Kochia” value (kochia (Kochia scoparia); [19]) was 70. The “Plant response rating, Kochia” value (kochia (Kochia scoparia); 62 g ai/ha, scale 0 to 100) was 98, the “Plant response rating, Velvetleaf” value [3, 16] was 0 and the “Plant response rating, Velvetleaf” value [3, 17] was 0. The “Plant response rating, Velvetleaf” value [3, 18] was 0, the “Plant response rating, Velvetleaf” value [3, 19] was 0 and the “Plant response rating, Dayflower, VA” value [4, 7] was 5. For the same compound, the “Plant response rating, Dayflower, VA” value [4, 8] was 15, the “Plant response rating, Dayflower, VA” value [4, 9] was 20 and the “Plant response rating, Dayflower, VA” value [4, 10] was 20. For the same compound, the “Plant response rating, Dayflower, VA” value [4, 11] was 25, the “Plant response rating, Dayflower, VA” value [4, 12] was 0 and the “Plant response rating, Dayflower, VA” value [4, 13] was 35. For the same compound, the “Plant response rating, Dayflower, VA” value [4, 14] was 35, the “Plant response rating, Dayflower, VA” value [4, 15] was 35 and the “Plant response rating, Dayflower, VA” value [4, 20] was 65. For the same compound, the “Plant response rating, Crabgrass, Brazil” value [5, 7] was 15, the “Plant response rating, Crabgrass, Brazil” value [5, 8] was 15 and the “Plant response rating, Crabgrass, Brazil” value [5, 9] was 15. For the same compound, the “Plant response rating, Crabgrass, Brazil” value [5, 10] was 20, the “Plant response rating, Crabgrass, Brazil” value [5, 11] was 30 and the “Plant response rating, Crabgrass, Brazil” value [5, 12] was 0. For the same compound, the “Plant response rating, Crabgrass, Brazil” value [5, 13] was 100, the “Plant response rating, Crabgrass, Brazil” value [5, 14] was 100 and the “Plant response rating, Crabgrass, Brazil” value [5, 15] was 100. The “Plant response rating, Crabgrass, Brazil” value [5, 20] was 100, the “Plant response rating, Nightshade” value [6, 16] was 0 and the “Plant response rating, Nightshade” value [6, 17] was 0. For the same compound, the “Plant response rating, Nightshade” value [6, 18] was 5.

With CCc1nn(-c2ccc(F)cc2)nc1Oc1ccnc(C(F)(F)F)c1 [Compound 166] the “Plant response rating, Oilseed Rape” value (Oilseed Rape; 31 g ai/ha) was 50.

For CCCc1nn(-c2ccc(C(F)(F)F)c(F)c2)nc1Oc1ccnc(C(F)(F)F)c1 [Compound 185], the “Plant response rating, Oilseed Rape” value (Oilseed Rape; 31 g ai/ha) was 60.

For CCOc1nn(-c2ccc(Br)cc2)nc1Cc1ccnc(C(F)(F)F)c1 [Compound 189], the “Plant response rating, Oilseed Rape” value (Oilseed Rape; 16 g ai/ha) was 5.

— US9302999B2, “Substituted triazoles as herbicides” (E. I. DU PONT DE NEMOURS AND COMPANY, priority 2012, dated 2016)
